Laboratory results taken from patent US20140357602A1, “Combination Therapies For Treating Metabolic Disorders” (Genmedica Therapeutics SL, priority 2009, published 2014).

How the values were obtained:
[1] = tested on: alloxan-treated cd-1 mice; assay: Alloxan induced beta cell destruction model (in vivo β-cell protection)
Protocol: In Vivo β-Cell Protection Model β-cell destruction was induced in cd-1 male mice after 3 hours of fasting by a single intra-peritoneal (i.p.) injection of a freshly prepared solution of alloxan 200 mg/kg (Sigma-Aldrich, San Luis, Mo.) that was dissolved in NaCl 0.9%. One single intra-peritoneal drug administration was given one hour before the Alloxan administration. […] At the end of the treatment, day 4, animals were sacrificed and the plasma collected and kept at −20° C. until used.
Pancreatic beta cell destruction was induced in the cd-1 mice after 3 hours of fasting by a single intraperitoneal injection of a freshly prepared solution of alloxan 200 mg/kg (Sigma-Aldrich, San Luis, Mo.) that was dissolved in NaCl 0.9%. Single drug intraperitoneal administration was 1 hour before the alloxan administration. […] The control group was injected with the vehicle, PBS at pH 7.4. Glycemia was measured on arterio-venous blood collected from the tail vessels between 9:00 and 10:00 am on day 0 (day of drug administration) to day 4.

[2] = tested on: islets; conditions: low-dose streptozotocin-induced insulitis; cited from earlier work
[3] = tested on: INS-1E β-cells; assay: In vitro INS-1E β-cell assay (apoptosis, caspase 3/7); assay type: cell-based; conditions: apoptosis promoted by high (11 mM) glucose and high (0.4 mM) palmitate
Protocol: INS-1E β-cells were cultivated in the presence of a high glucose concentration (11 mM) and a high palmitate concentration (0.4 mM bound to BSA 0.5%) in order to promote glucotoxicity and lipotoxicity. […] The capacity of protecting β-cells with different combinations of antioxydants and anti-inflammatory agents were tested using these stressing conditions that reflect the pathophysiological conditions implicated in pancreatic dysfunction related to diabetes onset. INS-1E cells were seeded at a density of 80,000 cells/cm^2 in 96 wells plates 4 days before the beginning of the treatment. At 60-80% of confluence, cells were fasted with RPMI 5 mM of glucose+FBS 10%. […] The day after, fasting medium was changed by the stressing medium (glucose […]+palmitate 0.4 mM bound to BSA 0.5%). Medium, and tested agents when present, were changed every 24 h. 48 h after the addition of the stressing medium, apoptosis was measured with Apo-One Homogeneous Caspase 3/7 Assay (Promega) which determines the activity of caspase 3 and 7. […] Resulting fluorescence was read at 485/530 (excitation/emission wave length). The background apoptosis, in absence of stressing condition, was determined with INS 1E-cells cultured in the presence of fasting medium (RPMI 5 mM glucose+FBS 10%). […]

[4] = tested on: type II diabetes patients; conditions: cited from earlier work
[5] = type II diabetes patients, 4 grams/day

In the case of `CC(=O)N[C@@H](CS)C(=O)O` [N-acetylcysteine], the glycemia ([1]; FIG. 3, NAC alone i.p. 0.38 and 0.75 mmol/kg) is reported as “significant reductions of glycemia were observed only at the highest administered concentrations”, the insulinemia ([1]; FIG. 3, NAC alone i.p., highest concentrations administered) is reported as “significantly increased” and the glycemia ([1]; NAC alone 0.19 mmol/kg i.p.) is reported as “not to affect glycemia”. The glycemia ([1]; NAC alone 0.38 mmol/kg) was “statistically-significant reductions in glycemia” and the “protection of islets from immune destruction” value (shortened to “protection of islets”) [2] was “partially protect”.

For `NC(=O)c1cccnc1` [nicotinamide], the “protection of islets” value [2] is listed as “partially protect”.

With `NCCS(=O)(=O)O` [Taurine] the “Combination concentrations (concentrations that reduced apoptosis)” value [3] was 3 mM.

For `CC(=O)Oc1ccccc1C(=O)O` [aspirin], the glucose levels ([4]; patients with diabetes, high dosage) is given as “lower”.

For `CC(=O)N(O)CCCCCNC(=O)CCC(=O)N(O)CCCCCNC(=O)CCC(=O)N(O)CCCCCN` [desferrioxamine], the “protection of islets” value [2] is given as “partially protect”.

With `O=C([O-])c1ccccc1O.[Na+]` [Salicylate, Sodium Salicylate] the glycemia ([1]; FIG. 3, salicylate alone i.p. 0.38, 0.75 and 1.5 mmol/kg) was “significant reductions of glycemia were observed only at the highest administered concentrations”, the glycemia ([1]; sodium salicylate alone 0.38 mmol/kg i.p.) was “not to affect glycemia” and the glycemia ([1]; sodium salicylate alone 0.75 mmol/kg) was “statistically-significant reductions in glycemia”.

For `O=C(Oc1ccccc1C(=O)O)c1ccccc1O` [salsalate], the fasting glucose [4, 5] is given as “lowered” and the inflammation [4, 5] is given as “reduced”.

For `Cc1c(C)c2c(c(C)c1O)CC[C@@](C)(CCC[C@H](C)CCC[C@H](C)CCCC(C)C)O2` [α-tocopherol], the “Combination concentrations (concentrations that reduced apoptosis)” value [3] was 1 mM.
